Data as given in patent EP1348696B1, “Use of optically active clausenamides for the preparation of pharmaceutical compositions, pharmaceutical compositions containing the same” (INSTITUTE OF MATERIA MEDICA, CHINESE ACADEMY OF MEDICAL …, priority 2002, dated 2003).

System: β-AP (25-35)-treated rats
Assay: Morris water maze, memory impairment induced by aggregated Aβ 25-35
Type: in vivo
Conditions: A β 25-35 alone
Description: Pathological features of Alzheimer's disease (AD) include extensive neuronal loss and the presence of numerous neurofibrillary tangles and senile plaques in the brain. The senile plaques contain amyloid fibrils derived from a 39-43 amino acids peptide referred to as β-amyloid or Aβ which can produce neurotoxicity. Aβ 25-35 poccesses the similar neurotoxicity and ability of self-aggregation as Aβ 1-42. Administrated aggregated Aβ 25-35 into rat's lateral cerebral ventricle induced memory impairment in Morris water maze. […] The latency for finding the platform beginning from 3th to 5th day in (-)clausenamide 8mg • kg^-1 and 40mg • kg^-1 groups was shorter than that of A β group. […] With increasing of training days, the initial heading angle became small. On the 3th day, the initial heading angle of A β group was larger than control. […] (see Tab.3)
There are four strategies for finding platform in Morris water maze: random, circle, taxis and line. In the beginning of training the search strategies for finding target is mainly circle and random, with the increasing of training, the percentage of the two strategies declined gradually, Beginning from the 3th day, declining speed in control and (-) clausenamide group was faster than A β ,(+) clausenamide and piracetam groups. Meanwhile, the appearance of taxis and line strategies in (-) clausenamide group increased markedly. Table 3a Effects of (-),(+) Clausenamide on the number of error of β-AP (25-35)-treated rats inone trial passive avoidance. Value is represented as MEAN±S.E.M.

A β 25-35: β-amyloid fragment with neurotoxicity and self-aggregation similar to Aβ 1-42; icv induces memory impairment (GSNKGAIIGLM; Amyloid-beta protein 42; UniProt P05067 696-706, looked up, fragment)
initial heading angle, Training days 1: 106.3±29.8
initial heading angle, Training days 2: 98.7±30.4
initial heading angle, Training days 3: 73.6±20.3
initial heading angle, Training days 4: 60.6±23.8
initial heading angle, Training days 5: 46.7±19.4
